pEC50: −log10 of the molar value.
Assays:
[1] = target: Human CB2R (Cannabanoid receptor 2) (Homo sapiens (Human), UniProt P34972); test: CB-2 in vitro cAMP (HTRF) assay in HEK-293 cells; assay type: cell-based; conditions: HEK-293 cells stably transfected with human CB2R, 250 nM Forskolin, mean where tested more than once, read-out: CB-2 (HEK_cAMP) EC50
Outline: (§1)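 HEK-293 cells stably expressing human CB1 or CB2 plated overnight, then tested in HBSS/5 mM HEPES/0.1% BSA with 0.5 mM IBMX and forskolin (1.5 μM working dilution). Intracellular cAMP quantified by competitive HTRF immunoassay (d2-cAMP, cryptate anti-cAMP) against a cAMP standard curve; compounds as 1/3 serial dilutions from 10 mM DMSO stocks.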

[2] = target: Human CB1R (Cannabanoid receptor 1) (Homo sapiens (Human), UniProt P21554); test: CB-1 in vitro cAMP (HTRF) assay in HEK-293 cells; assay type: cell-based; conditions: HEK-293 cells stably transfected with human CB1R, 250 nM Forskolin, mean where tested more than once, read-out: CB-1 (HEK_cAMP) EC50
Human CB1R (Cannabanoid receptor 1), sequence (P21554 whole entry): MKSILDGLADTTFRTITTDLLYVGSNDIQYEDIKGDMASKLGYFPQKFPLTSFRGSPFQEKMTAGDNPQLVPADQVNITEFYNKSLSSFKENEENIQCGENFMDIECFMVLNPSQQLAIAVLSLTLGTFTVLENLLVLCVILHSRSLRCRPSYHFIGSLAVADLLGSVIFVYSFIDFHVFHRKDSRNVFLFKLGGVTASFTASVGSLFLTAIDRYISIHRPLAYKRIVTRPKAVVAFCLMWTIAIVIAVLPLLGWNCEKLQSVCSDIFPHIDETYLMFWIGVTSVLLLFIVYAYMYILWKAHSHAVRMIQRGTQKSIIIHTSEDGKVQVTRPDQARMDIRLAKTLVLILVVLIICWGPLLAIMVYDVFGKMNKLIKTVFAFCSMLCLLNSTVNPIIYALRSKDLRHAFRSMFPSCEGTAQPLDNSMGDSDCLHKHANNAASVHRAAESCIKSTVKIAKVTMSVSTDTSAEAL
Outline: as §1

Human CB2R (Cannabanoid receptor 2), sequence (P34972 whole entry): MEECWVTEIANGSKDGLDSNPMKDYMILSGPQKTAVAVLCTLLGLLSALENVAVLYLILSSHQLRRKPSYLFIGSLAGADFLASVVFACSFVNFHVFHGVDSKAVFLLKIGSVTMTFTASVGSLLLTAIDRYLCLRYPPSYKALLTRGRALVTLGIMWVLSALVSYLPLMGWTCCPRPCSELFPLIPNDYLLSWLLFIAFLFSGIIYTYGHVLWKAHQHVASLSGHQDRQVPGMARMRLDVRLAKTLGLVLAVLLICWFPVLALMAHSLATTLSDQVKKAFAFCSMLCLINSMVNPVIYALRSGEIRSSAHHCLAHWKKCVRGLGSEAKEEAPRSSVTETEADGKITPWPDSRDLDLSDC

`NC(=O)c1ccc(-n2nc(C3CCN(S(=O)(=O)C(F)(F)F)CC3)c3cc(C(c4ccc(Cl)cc4)c4ccc(Cl)cc4)ccc32)cc1` [Compound 205] gave a pEC50 [1] of 5.67 and a pEC50 [2] of 8.22.

`O=C(c1nnn[nH]1)N1CCC(c2n[nH]c3ccc(C(c4ccc(Cl)cc4)c4ccc(Cl)cc4)cc23)CC1` [Compound 143] showed a pEC50 [1] of less than 5.00 and a pEC50 [2] of 6.00.

`COC(=O)c1ccc(S(=O)(=O)N2CCC(c3n[nH]c4ccc(C(c5ccc(Cl)cc5)c5ccc(Cl)cc5)cc34)CC2)o1` [Compound 260] gave a pEC50 [1] of less than 4.38 and a pEC50 [2] of 7.60.

With `O=C(O)C(=O)N1CCC(c2c3cc(C(c4ccc(Cl)cc4)c4ccc(Cl)cc4)ccc3nn2C2CC2)CC1` [Compound 126] the pEC50 [1] was less than 5.00 and the pEC50 [2] was 6.21.

`O=C(O)c1ccccc1Cn1nc(N2CCN(S(=O)(=O)C(F)(F)F)CC2)c2cc(C(c3ccc(Cl)cc3)c3ccc(Cl)cc3)ccc21` [Compound 45] showed a pEC50 [1] of less than 5.00 and a pEC50 [2] of 6.03.

With `O=C(O)c1ccccc1C(=O)N1CCC(c2nn(C3CC3)c3ccc(C(c4ccc(Cl)cc4)c4ccc(Cl)cc4)cc23)CC1` [Compound 103] the pEC50 [1] was less than 5.00 and the pEC50 [2] was 5.22.

For `O=C(O)c1cccc(CN2CCC(c3nn(C4CC4)c4ccc(C(c5ccccc5)c5ccc(Cl)cc5)cc34)CC2)c1` (centres unmarked) [Compound 245], the pEC50 [1] was less than 5.00 and the pEC50 [2] was 7.70.

With `NC(=O)c1ccc(S(=O)(=O)N2CCC(c3c4cc(C(c5ccc(Cl)cc5)c5ccc(Cl)cc5)ccc4nn3C3CC3)CC2)o1` [Compound 172, 5-(4-(5-(bis(4-chlorophenyl)methyl)-2-cyclopropyl-2H-indazol-3-yl)piperidin-1-ylsulfonyl)furan-2-carboxamide] the pEC50 [1] was less than 5.00 and the pEC50 [2] was 8.52.

Work on `CCOC(=O)N1CCC(c2n[nH]c3ccc(C(c4ccc(Cl)cc4)c4ccc(Cl)cc4)cc23)CC1` [Compound 268] yielded a pEC50 [1] of 4.91 and a pEC50 [2] of 7.49.

Compound `NS(=O)(=O)N1CCC(c2n[nH]c3ccc(C(c4ccc(Cl)cc4)c4ccc(Cl)cc4)cc23)CC1` [Compound 23] has a pEC50 [1] of less than 5.00 and a pEC50 [2] of 5.67.

`O=C(O)c1ccc(S(=O)(=O)N2CCC(Nc3n[nH]c4ccc(C(c5ccc(Cl)cc5)c5ccc(Cl)cc5)cc34)CC2)cc1` [Compound 129] gave a pEC50 [1] of less than 5.00 and a pEC50 [2] of 6.69.

In the case of `CNC(=O)c1ccc(S(=O)(=O)N2CCC(c3c4cc(C(c5ccc(Cl)cc5)c5ccc(Cl)cc5)ccc4nn3C3CC3)CC2)cc1F` [Compound 176, 4-(4-(5-(bis(4-chlorophenyl)methyl)-2-cyclopropyl-2H-indazol-3-yl)piperidin-1-ylsulfonyl)-2-fluoro-N-methylbenzamide], the pEC50 [1] was less than 5.00 and the pEC50 [2] was 8.30.

In the case of `COc1ccc(S(=O)(=O)N2CCC(Nc3n[nH]c4ccc(C(c5ccc(Cl)cc5)c5ccc(Cl)cc5)cc34)CC2)cc1` [Compound 119], the pEC50 [1] was less than 5.00 and the pEC50 [2] was 6.84.

`O=C(O)c1cccc(N2CCC(c3c4cc(C(c5ccc(Cl)cc5)c5ccc(Cl)cc5)ccc4nn3C3CC3)CC2)c1` [Compound 183] was tested, and the pEC50 [1] was less than 5.00 and the pEC50 [2] was 7.11.

`O=S(=O)(c1ccc(C(F)(F)F)cc1)N1CCC(c2n[nH]c3ccc(C(c4ccc(Cl)cc4)c4ccc(Cl)cc4)cc23)CC1` [Compound 32] showed a pEC50 [1] of less than 5.00 and a pEC50 [2] of 7.15.

With `O=C(O)CCS(=O)(=O)N1CCC(c2nn(CCO)c3ccc(C(c4ccc(Cl)cc4)c4ccc(Cl)cc4)cc23)CC1` [Compound 83] the pEC50 [1] was less than 5.00 and the pEC50 [2] was 5.80.

`O=C(O)c1ccc([C@H](c2ccc(Cl)cc2)c2ccc3[nH]nc(C4CCN(S(=O)(=O)C(F)(F)F)CC4)c3c2)cc1` [Compound 231] showed a pEC50 [1] of less than 5.00 and a pEC50 [2] of 5.38.

With `NC(=O)Cc1ccc(N2CCC(c3c4cc(C(c5ccc(Cl)cc5)c5ccc(Cl)cc5)ccc4nn3C3CC3)CC2)cc1` [Compound 186] the pEC50 [1] was less than 5.00 and the pEC50 [2] was 7.23.

`O=S(=O)(c1ccccc1C(F)(F)F)N1CCC(c2n[nH]c3ccc(C(c4ccc(Cl)cc4)c4ccc(Cl)cc4)cc23)CC1` [Compound 33] showed a pEC50 [1] of less than 5.00 and a pEC50 [2] of 7.31.

For `O=C(O)COc1ccc(N2CCC(c3c4cc(C(c5ccc(Cl)cc5)c5ccc(Cl)cc5)ccc4nn3C3CC3)CC2)cc1` [Compound 196], the pEC50 [1] was less than 5.00 and the pEC50 [2] was 5.38.

For `NC(=O)c1cccc(S(=O)(=O)N2CCC(Nc3n[nH]c4ccc(C(c5ccc(Cl)cc5)c5ccc(Cl)cc5)cc34)CC2)c1` [Compound 122], the pEC50 [1] was less than 5.00 and the pEC50 [2] was 7.00.

`O=C(CC(F)(F)F)N1CCC(c2n[nH]c3ccc(C(c4ccc(Cl)cc4)c4ccc(Cl)cc4)cc23)CC1` [Compound 56] showed a pEC50 [1] of less than 5.00 and a pEC50 [2] of 7.14.

Work on `O=C(O)c1cccc(S(=O)(=O)N2CCC(c3n[nH]c4ccc(C(c5ccc(Cl)cc5)c5ccc(Cl)cc5)cc34)CC2)c1` [Compound 61] yielded a pEC50 [1] of less than 5.00 and a pEC50 [2] of 6.72.

Compound `NC(=O)c1ccccc1Cn1nc(N2CCN(S(=O)(=O)C(F)(F)F)CC2)c2cc(C(c3ccc(Cl)cc3)c3ccc(Cl)cc3)ccc21` [Compound 55] has a pEC50 [1] of less than 5.00 and a pEC50 [2] of 6.19.

For `Cc1ccc(C(c2ccc(C)cc2)c2ccc3c(c2)c(C2CCN(Cc4cccc(C(=O)O)c4)CC2)nn3C2CC2)cc1` [Compound 244], the pEC50 [1] was less than 5.00 and the pEC50 [2] was 7.32.

`O=S(=O)(N1CCC(c2nn(-c3cccc(C(F)(F)F)c3)c3ccc(C(c4ccc(Cl)cc4)c4ccc(Cl)cc4)cc23)CC1)C(F)(F)F` [Compound 57] showed a pEC50 [1] of less than 5.00 and a pEC50 [2] of 6.32.

Work on `CC(C)(C)OC(=O)N1CCC(c2nn(CCO)c3ccc(C(c4ccc(Cl)cc4)c4ccc(Cl)cc4)cc23)CC1` [Compound 76] yielded a pEC50 [1] of less than 5.00 and a pEC50 [2] of 6.95.

In the case of `O=S(=O)(c1ccc(O)cc1)N1CCC(Nc2n[nH]c3ccc(C(c4ccc(Cl)cc4)c4ccc(Cl)cc4)cc23)CC1` [Compound 130], the pEC50 [1] was less than 5.00 and the pEC50 [2] was 7.82.

In the case of `NC(=O)COc1ccc(N2CCC(c3n[nH]c4ccc(C(c5ccc(Cl)cc5)c5ccc(Cl)cc5)cc34)CC2)cc1` [Compound 224], the pEC50 [1] was less than 5.00 and the pEC50 [2] was 5.68.

`O=S(=O)(N1CCC(Nc2n[nH]c3ccc(C(c4ccc(Cl)cc4)c4ccc(Cl)cc4)cc23)CC1)C(F)(F)F` [Compound 77] showed a pEC50 [1] of less than 5.00 and a pEC50 [2] of 7.22.

For `COc1ccc(C(c2ccc(OC)cc2)c2ccc3[nH]nc(C4CCN(S(=O)(=O)C(F)(F)F)CC4)c3c2)cc1` [Compound 67], the pEC50 [1] was 5.28 and the pEC50 [2] was 8.70.

In the case of `NC(=O)c1ccc(S(=O)(=O)N2CCC(c3c4cc(C(c5ccc(Cl)cc5)c5ccc(Cl)cc5)ccc4nn3C3CC3)CC2)cc1Cl` [Compound 153, 4-(4-(5-(bis(4-chlorophenyl)methyl)-2-cyclopropyl-2H-indazol-3-yl)piperidin-1-ylsulfonyl)-2-chlorobenzamide], the pEC50 [1] was less than 5.00 and the pEC50 [2] was 7.77.

`NC(=O)Cc1cccc(N2CCC(c3nn(C4CC4)c4ccc(C(c5ccc(Cl)cc5)c5ccc(Cl)cc5)cc34)CC2)c1` [Compound 190] gave a pEC50 [1] of less than 5.00 and a pEC50 [2] of 5.96.

Compound `O=C(O)Cc1ccc(N2CCC(c3c4cc(C(c5ccc(Cl)cc5)c5ccc(Cl)cc5)ccc4nn3C3CC3)CC2)cc1` [Compound 203] has a pEC50 [1] of less than 5.00 and a pEC50 [2] of 7.28.

`O=C(O)CCS(=O)(=O)N1CCC(c2c3cc(C(c4ccc(Cl)cc4)c4ccc(Cl)cc4)ccc3nn2C2CC2)CC1` [Compound 133] gave a pEC50 [1] of less than 5.00 and a pEC50 [2] of 5.41.

`O=C(O)c1ccc(C(c2ccc(Cl)cc2)c2ccc3nn(C4CC4)c(C4CCN(S(=O)(=O)C(F)(F)F)CC4)c3c2)cc1` (centres unmarked) [Compound 238, 4-[(4-chlorophenyl) ([2-cyclopropyl-3-[1-(trifluoromethane)sulfonylpiperidin-4-yl]-2H-indazol-5-yl])methyl]benzoic acid] showed a pEC50 [1] of less than 5.00 and a pEC50 [2] of 6.70.

With `COc1cccc(S(=O)(=O)N2CCC(c3c4cc(C(c5ccc(Cl)cc5)c5ccc(Cl)cc5)ccc4nn3C3CC3)CC2)c1` [Compound 150, 5-(bis(4-chlorophenyl)methyl)-2-cyclopropyl-3-(1-(3-methoxyphenylsulfonyl)piperidin-4-yl)-2H-indazole] the pEC50 [1] was less than 5.00 and the pEC50 [2] was 8.15.

In the case of `NS(=O)(=O)c1cccc(C(=O)N2CCC(c3nn(CCO)c4ccc(C(c5ccc(Cl)cc5)c5ccc(Cl)cc5)cc34)CC2)c1` [Compound 71], the pEC50 [1] was less than 5.00 and the pEC50 [2] was 7.17.

`COC(=O)c1ccc(CN2CCC(c3n[nH]c4ccc(C(c5ccc(Cl)cc5)c5ccc(Cl)cc5)cc34)CC2)cc1` [Compound 258] gave a pEC50 [1] of less than 4.38 and a pEC50 [2] of 6.37.

`O=C(O)CC(=O)N1CCC(c2n[nH]c3ccc(C(c4ccc(Cl)cc4)c4ccc(Cl)cc4)cc23)CC1` [Compound 41] was tested, and the pEC50 [1] was less than 5.00 and the pEC50 [2] was 5.78.

For `O=S(=O)(N1CCC(c2nn(CCO)c3ccc(C(c4ccc(Cl)cc4)c4ccc(Cl)cc4)cc23)CC1)C(F)(F)F` [Compound 79], the pEC50 [1] was less than 5.00 and the pEC50 [2] was 7.85.

In the case of `O=C(O)c1ccc(S(=O)(=O)N2CCC(c3c4cc(C(c5ccc(Cl)cc5)c5ccc(Cl)cc5)ccc4nn3C3CC3)CC2)cc1` [Compound 117, 4-(4-(5-(bis(4-chlorophenyl)methyl)-2-cyclopropyl-2H-indazol-3-yl)piperidin-1-ylsulfonyl)benzoic acid], the pEC50 [1] was 5.81 and the pEC50 [2] was 8.05.

In the case of `O=C(NCc1ccccc1)N1CCC(c2n[nH]c3ccc(C(c4ccc(Cl)cc4)c4ccc(Cl)cc4)cc23)CC1` [Compound 262], the pEC50 [1] was less than 5.00 and the pEC50 [2] was 6.17.

In the case of `O=S(=O)(N1CCC(c2nn(-c3ccccc3Cl)c3ccc(C(c4ccc(Cl)cc4)c4ccc(Cl)cc4)cc23)CC1)C(F)(F)F` [Compound 48], the pEC50 [1] was less than 5.00 and the pEC50 [2] was 7.51.

`O=C(O)COc1cccc(N2CCC(c3nn(C4CC4)c4ccc(C(c5ccc(Cl)cc5)c5ccc(Cl)cc5)cc34)CC2)c1` [Compound 191] gave a pEC50 [1] of less than 5.00 and a pEC50 [2] of 5.28.

`COC(=O)CC(=O)N1CCC(c2n[nH]c3ccc(C(c4ccc(Cl)cc4)c4ccc(Cl)cc4)cc23)CC1` [Compound 51] showed a pEC50 [1] of less than 5.00 and a pEC50 [2] of 6.82.

Reference: patent US9682940B2, “Indazole derivatives useful as CB-1 inverse agonists” (Janssen Pharmaceutica NV, priority 2015, dated 2017)
